Reference: patent US10391095B2, “DNA-PK inhibitors” (Vertex Pharmaceuticals Incorporated, priority 2012, dated 2019)
pKi: −log10 of the molar value.

Each molecule was assayed against DNA-PK (Homo sapiens, UniProt P78527) (assay: DNA-PK inhibition assay (radiometric, 33P-ATP)). Settings: 100 μM ATP, competitive tight-binding fit.
Assay type: biochemical
Description: Compounds were screened for their ability to inhibit DNA-PK kinase using a standard radiometric assay. Briefly, in this kinase assay the transfer of the terminal ^33P-phosphate in ^33P-ATP to a peptide substrate is interrogated. The assay was carried out in 384-well plates to a final volume of 50 μL per well containing approximately 6 nM DNA-PK, 50 mM HEPES (pH 7.5), 10 mM MgCl2, 25 mM NaCl, 0.01% BSA, 1 mM DTT, 10 μg/mL sheared double-stranded DNA (obtained from Sigma), 0.8 mg/mL DNA-PK peptide ([…] obtained from American Peptide), and 100 μM ATP. Accordingly, compounds of the invention were dissolved in DMSO to make 10 mM initial stock solutions. Serial dilutions in DMSO were then made to obtain the final solutions for the assay. A 0.75 μL aliquot of DMSO or inhibitor in DMSO was added to each well, followed by the addition of ATP substrate solution containing ^33P-ATP (obtained from Perkin Elmer). The reaction was started by the addition of DNA-PK, peptide and ds-DNA. After 45 min, the reaction was quenched with 25 μL of 5% phosphoric acid. The reaction mixture was transferred to MultiScreen HTS 384-well PH plates (obtained from Millipore), allowed to bind for one hour, and washed three times with 1% phosphoric acid. Following the addition of 50 μL of Ultima Gold™ high efficiency scintillant (obtained from Perkin Elmer), the samples were counted in a Packard TopCount NXT Microplate Scintillation and Luminescence Counter (Packard BioScience). The Ki values were calculated using Microsoft Excel Solver macros to fit the data to the kinetic model for competitive tight-binding inhibition.

Row | pKi | SMILES
1 | > 7.52 | COc1ccccc1[C@H](C)CNc1cc(-c2ccc(C)nc2)ncn1 [Compound 55]
2 | > 7.52 | CCOc1ccccc1CCNc1cc(-c2ccc(C)nc2)ncn1 [Compound 57]
3 | > 7.52 | Cc1ccc(-c2cc(NCCc3cccc4c3OCC4)ncn2)cn1 [Compound 60]
4 | > 7.52 | CC(CNc1cc(-c2ccc(N3CCN(C)CC3)nc2)ncn1)c1ccccc1OC(F)F (stereo not shown) [Compound 63]
5 | > 7.52 | COc1cc(SC)ccc1C(C)CNc1cc(-c2ccc(N3CCN(C(C)=O)CC3)nc2)ncn1 (stereo not shown) [Compound 73]
6 | > 7.52 | COc1ccccc1CCNc1cc(-c2ccc3c(cnn3C)c2)ncn1 [Compound 79]
7 | > 7.52 | COc1ccccc1[C@H](C)CNc1cc(-c2ccc3ncccc3c2)ncn1 [Compound 80]
8 | > 7.52 | COc1ccccc1CCNc1cc(-c2cnc3c(cnn3C3CCN(C)CC3)c2)ncn1 [Compound 82]
9 | > 7.52 | COc1ccccc1[C@H](C)CNc1cc(-c2cnc3c(cnn3C3CCN(C)CC3)c2)ncn1 [Compound 83]
10 | > 7.52 | COc1ccccc1[C@H](C)CNc1cc(-c2ccc(N3CCCC3)nc2)ncn1 [Compound 84]
11 | > 7.52 | Cc1ccc(-c2cc(NCC(C)c3cccc4c3OC(C)(C)C4)ncn2)cn1 (stereo not shown) [Compound 85]
12 | > 7.52 | Cc1ccc(-c2cc(NCCc3ccccc3OC3CC3)ncn2)cn1 [Compound 86]
13 | > 7.52 | CN1CCN(c2ccc(-c3cc(NCCc4ccccc4OC4CC4)ncn3)cn2)CC1 [Compound 87]
14 | > 7.52 | CCOc1ccccc1C(C)CNc1cc(-c2ccc(C)nc2)ncn1 (stereo not shown) [Compound 91]
15 | > 7.52 | CCOc1ccccc1C(C)CNc1cc(-c2ccc(N3CCN(C)CC3)nc2)ncn1 (stereo not shown) [Compound 92]
16 | > 7.52 | CCOc1ccccc1CCNc1cc(-c2ccc(N3CCN(CCO)CC3)nc2)ncn1 [Compound 94]
17 | > 7.52 | COc1ccccc1[C@H](C)CNc1cc(-c2ccc(F)nc2)ncn1 [Compound 96]
18 | > 7.52 | COc1ccccc1CCNc1cc(-c2cnc3c(cnn3CS(C)(=O)=O)c2)ncn1 [Compound 97]
19 | > 7.52 | CCOc1ccccc1CCNc1cc(-c2ccc(N3CC[C@H](O)C3)nc2)ncn1 [Compound 98]
20 | > 7.52 | CCOc1ccccc1CCNc1cc(-c2ccc(N3CC[C@@H](O)C3)nc2)ncn1 [Compound 99]
21 | > 7.52 | CCOc1cc(F)ccc1C(C)CNc1cc(-c2ccc(C)nc2)ncn1 (stereo not shown) [Compound 100]

Row | pKi | SMILES
22 | > 7.52 | Cc1ccc(-c2cc(NCC(C)c3ccccc3OC3COC3)ncn2)cn1 (stereo not shown) [Compound 101]
23 | > 7.52 | CC(CNc1cc(-c2ccc(N3CCN(C)CC3)nc2)ncn1)c1ccccc1OC1COC1 (stereo not shown) [Compound 102]
24 | > 7.52 | CCOc1cc(F)ccc1[C@H](C)CNc1cc(-c2ccc(C)nc2)ncn1 [Compound 103]
25 | > 7.52 | COc1ccccc1[C@H](C)CNc1cc(-c2ccnc(-c3ccnc(F)c3)c2)ncn1 [Compound 105]
26 | > 7.52 | Cc1ccc(-c2cc(NC[C@@H](C)c3ccccc3OC3CC3)ncn2)cn1 [Compound 107]
27 | > 7.52 | Cc1ccc(-c2cc(NC[C@@H](C)c3ccccc3O)ncn2)cn1 [Compound 109]
28 | > 7.52 | CCOc1ccccc1[C@H](C)CNc1cc(-c2ccc(C)nc2)ncn1 [Compound 110]
29 | > 7.52 | C[C@H](CNc1cc(-c2ccc(N3CCN(C)CC3)nc2)ncn1)c1ccccc1OC1CC1 [Compound 114]
30 | > 7.52 | COc1cc(CO)ccc1C(C)CNc1cc(-c2ccc(N3CCN(C(C)=O)CC3)nc2)ncn1 (stereo not shown) [Compound 115]
31 | > 7.52 | COC(=O)c1ccc(C(C)CNc2cc(-c3ccc(N4CCN(C(C)=O)CC4)nc3)ncn2)c(OC)c1 (stereo not shown) [Compound 116]
32 | > 7.52 | COc1cc(F)c(F)cc1C(C)CNc1cc(-c2ccc(C)nc2)ncn1 (stereo not shown) [Compound 117]
33 | > 7.52 | COc1ccccc1[C@H](C)CNc1cc(-c2ccc(NCCO)nc2)ncn1 [Compound 118]
34 | > 7.52 | COc1ccccc1[C@H](C)CNc1cc(-c2ccnc(NCCO)c2)ncn1 [Compound 119]
35 | > 7.52 | CCOc1cc(F)ccc1[C@H](C)CNc1cc(-c2ccc(N3CCN(C)CC3)nc2)ncn1 [Compound 120]
36 | > 7.52 | COc1cc(C(N)=O)ccc1C(C)CNc1cc(-c2ccc(C)nc2)ncn1 (stereo not shown) [Compound 122]
37 | > 7.52 | CNC(=O)c1ccc(C(C)CNc2cc(-c3ccc(C)nc3)ncn2)c(OC)c1 (stereo not shown) [Compound 123]
38 | > 7.52 | CCOc1ncc(-c2cc(NC[C@@H](C)c3ccccc3OC)ncn2)cn1 [Compound 125]
39 | > 7.52 | COc1ccccc1[C@H](C)CNc1cc(-c2cnc3c(cnn3CCO)c2)ncn1 [Compound 127]
40 | > 7.52 | COc1cc(F)c(F)cc1[C@H](C)CNc1cc(-c2ccc(C)nc2)ncn1 [Compound 128]
41 | > 7.52 | CNC(=O)c1ccc(C(C)CNc2cc(-c3ccc(N4CCN(C(C)=O)CC4)nc3)ncn2)c(OC)c1 (stereo not shown) [Compound 130]
42 | > 7.52 | COc1cc(C(N)=O)ccc1C(C)CNc1cc(-c2ccc(N3CCN(C(C)=O)CC3)nc2)ncn1 (stereo not shown) [Compound 131]

Row | pKi | SMILES
43 | > 7.52 | C[C@H](CNc1cc(-c2ccc(N3CCN(C)CC3)nc2)ncn1)c1cccc2c1OCC2 [Compound 132]
44 | > 7.52 | Cc1ccc(-c2cc(NC[C@@H](C)c3cccc4c3OCC4)ncn2)cn1 [Compound 134]
45 | > 7.52 | CC(=O)N1CCN(c2ccc(-c3cc(NCC(C)c4ccccc4OCc4ccccc4)ncn3)cn2)CC1 (stereo not shown) [Compound 135]
46 | > 7.52 | CC(=O)N1CCN(c2ccc(-c3cc(NCC(C)c4ccccc4O)ncn3)cn2)CC1 (stereo not shown) [Compound 136]
47 | > 7.52 | CNc1ncc(-c2cc(NC[C@@H](C)c3ccccc3OC)ncn2)cn1 [Compound 137]
48 | > 7.52 | COc1ccccc1[C@H](C)CNc1cc(-c2cnc(C)nc2)ncn1 [Compound 138]
49 | > 7.52 | COCCn1ncc2cc(-c3cc(NC[C@@H](C)c4ccccc4OC)ncn3)cnc21 [Compound 139]
50 | > 7.52 | COc1ccccc1[C@H](C)CNc1cc(-c2cnc3c(cnn3CC3CC3)c2)ncn1 [Compound 140]
51 | > 7.52 | CN1CCN(c2ccc(-c3cc(NCCc4ccccc4OC4CC4)ncn3)cn2)CC1=O [Compound 142]
52 | > 7.52 | COc1cscc1C(C)CNc1cc(-c2ccc(C)nc2)ncn1 (stereo not shown) [Compound 144]
53 | > 7.52 | CC(CNc1cc(-c2cnc3c(cnn3C3CCN(C)CC3)c2)ncn1)c1ccccc1OC1CC1 (stereo not shown) [Compound 145]
54 | > 7.52 | COc1cscc1C(C)CNc1cc(-c2ccc(N3CCN(C)CC3)nc2)ncn1 (stereo not shown) [Compound 146]
55 | > 7.52 | CCNC(=O)Cn1ncc2cc(-c3cc(NC[C@@H](C)c4ccccc4OC)ncn3)cnc21 [Compound 147]
56 | > 7.52 | CC(CNc1cc(-c2cnc3c(cnn3C3CCN(C)CC3)c2)ncn1)c1ccccc1O (stereo not shown) [Compound 151]
57 | > 7.52 | CCOc1ccccc1[C@H](C)CNc1cc(-c2ccc(N3CCN(C)CC3)nc2)ncn1 [Compound 152]
58 | > 7.52 | CNC(=O)c1ccc(C(C)CNc2cc(-c3cnc4c(cnn4CCO)c3)ncn2)c(OC)c1 (stereo not shown) [Compound 153]
59 | > 7.52 | CNC(=O)c1ccc(C(C)CNc2cc(-c3cnc4c(cnn4CCOC)c3)ncn2)c(OC)c1 (stereo not shown) [Compound 154]
60 | > 7.52 | CNC(=O)c1ccc(C(C)CNc2cc(-c3cnc4c(cnn4C4CCN(C)CC4)c3)ncn2)c(OC)c1 (stereo not shown) [Compound 155]
61 | > 7.52 | COc1cc(C(=O)NO)ccc1C(C)CNc1cc(-c2ccc(C)nc2)ncn1 (stereo not shown) [Compound 156]
